Data published in patent US10829501B2 (BRISTOL-MYERS SQUIBB COMPANY, priority 2016, dated 2020).
Where a name gives a salt, the structure may show the parent alone.

molecular target: ROCK2 (Homo sapiens, UniProt O75116); assay: ROCK2 kinase inhibition assay (LABCHIP 3000 Reader, FITC peptide substrate);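 note: rho kinase reaction read by separating phosphorylated from unphosphorylated peptide on chip, with inhibition of kinase activity computed per concentration across a dose-response series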
Sequence (O75116 whole entry, species assumed): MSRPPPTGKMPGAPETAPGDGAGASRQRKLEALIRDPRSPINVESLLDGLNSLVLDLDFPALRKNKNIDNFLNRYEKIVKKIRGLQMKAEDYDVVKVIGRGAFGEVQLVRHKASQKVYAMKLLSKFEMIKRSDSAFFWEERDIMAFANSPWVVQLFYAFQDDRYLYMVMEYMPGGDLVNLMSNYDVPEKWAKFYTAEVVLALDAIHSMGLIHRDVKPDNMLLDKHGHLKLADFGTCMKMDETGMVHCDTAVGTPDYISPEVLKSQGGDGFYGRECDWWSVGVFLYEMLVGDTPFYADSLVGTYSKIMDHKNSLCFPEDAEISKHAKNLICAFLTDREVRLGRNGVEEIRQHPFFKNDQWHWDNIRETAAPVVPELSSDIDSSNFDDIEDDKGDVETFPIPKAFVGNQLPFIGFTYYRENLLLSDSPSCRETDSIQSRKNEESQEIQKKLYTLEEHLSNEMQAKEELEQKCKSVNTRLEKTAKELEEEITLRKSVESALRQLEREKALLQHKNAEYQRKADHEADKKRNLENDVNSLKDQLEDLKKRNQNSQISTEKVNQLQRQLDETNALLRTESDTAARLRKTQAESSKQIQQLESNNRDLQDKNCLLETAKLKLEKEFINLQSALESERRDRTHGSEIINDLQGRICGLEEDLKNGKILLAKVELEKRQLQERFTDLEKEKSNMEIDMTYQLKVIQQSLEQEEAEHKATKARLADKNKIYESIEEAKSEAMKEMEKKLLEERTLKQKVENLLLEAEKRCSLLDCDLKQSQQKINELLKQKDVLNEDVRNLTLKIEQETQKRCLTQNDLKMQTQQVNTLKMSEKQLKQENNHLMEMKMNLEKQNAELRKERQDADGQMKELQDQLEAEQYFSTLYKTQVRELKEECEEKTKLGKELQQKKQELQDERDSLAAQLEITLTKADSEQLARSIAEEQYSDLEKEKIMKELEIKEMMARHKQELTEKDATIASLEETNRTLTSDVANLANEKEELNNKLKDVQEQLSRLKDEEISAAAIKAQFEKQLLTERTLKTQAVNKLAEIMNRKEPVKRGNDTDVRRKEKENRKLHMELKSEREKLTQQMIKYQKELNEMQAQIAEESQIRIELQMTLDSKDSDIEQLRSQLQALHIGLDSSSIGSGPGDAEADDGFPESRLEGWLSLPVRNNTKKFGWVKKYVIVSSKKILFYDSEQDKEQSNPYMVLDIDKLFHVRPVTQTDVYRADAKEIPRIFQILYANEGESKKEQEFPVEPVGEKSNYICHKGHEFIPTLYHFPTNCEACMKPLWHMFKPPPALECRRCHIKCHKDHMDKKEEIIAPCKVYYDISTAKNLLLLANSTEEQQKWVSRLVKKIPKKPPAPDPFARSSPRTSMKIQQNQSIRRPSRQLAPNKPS

SMILES	IC50 [nM]
CC(C)(O)COc1ccc2c(C(=O)NC3CC4(C3)CC(Oc3cc(-c5cccc(COC(=O)NCCC(=O)OC(C)(C)C)c5)ccc3C(N)=O)C4)cnn2c1 (centres unmarked) [Example 250, tert-butyl 3-((((4′-carbamoyl-3′-((6-(6-(2-hydroxy-2-methylpropoxy)pyrazolo[1,5-a]pyridine-3-carboxamido)spiro[3.3]heptan-2-yl)oxy)-[1,1′-biphenyl]-3-yl)methoxy)carbonyl)amino)propanoate]	50 to 250
CCCNC(=O)c1cc(F)cc(-c2ccc(C(N)=O)c(OC3CC4(CC(NC(=O)c5cnn6cc(OCC(C)(C)O)ccc56)C4)C3)c2)c1 (centres unmarked) [Example 251, 5-fluoro-3′-((6-(6-(2-hydroxy-2-methylpropoxy)pyrazolo[1,5-a]pyridine-3-carboxamido)spiro[3.3]heptan-2-yl)oxy)-N3-propyl-[1,1′-biphenyl]-3,4′-dicarboxamide]	5 to 50
CC(C)(O)COc1ccc2c(C(=O)NC3CC4(C3)CC(Oc3cc(-c5cccc(CN)c5)ccc3C(N)=O)C4)cnn2c1 (centres unmarked) [Example 252, N-(6-((3′-(aminomethyl)-4-carbamoyl-[1,1′-biphenyl]-3-yl)oxy)spiro[3.3]heptan-2-yl)-6-(2-hydroxy-2-methylpropoxy)pyrazolo[1,5-a]pyridine-3-carboxamide]	5 to 50
CC(C)(O)COc1ccc2c(C(=O)NC3CC4(C3)CC(Oc3cc(-c5cc(C#N)cc([N+](=O)[O-])c5)ccc3C(N)=O)C4)cnn2c1 (centres unmarked) [Example 254, N-(6-((4-carbamoyl-3′-cyano-5′-nitro-[1,1′-biphenyl]-3-yl)oxy)spiro[3.3]heptan-2-yl)-6-(2-hydroxy-2-methylpropoxy)pyrazolo[1,5-a]pyridine-3-carboxamide]	5 to 50
CC(C)(O)COc1ccc2c(C(=O)NC3CC4(C3)CC(Oc3cc(-c5cc(C(=O)O)cc(C(=O)O)c5)ccc3C(N)=O)C4)cnn2c1 (centres unmarked) [Example 255, 4′-carbamoyl-3′-((6-(6-(2-hydroxy-2-methylpropoxy)pyrazolo[1,5-a]pyridine-3-carboxamido)spiro[3.3]heptan-2-yl)oxy)-[1,1′-biphenyl]-3,5-dicarboxylic acid]	5 to 50
CC(C)(O)COc1ccc2c(C(=O)NC3CC4(C3)CC(Oc3cc(-c5cccnc5)ccc3C(N)=O)C4)cnn2c1 (centres unmarked) [Example 256, N-(6-(2-carbamoyl-5-(pyridin-3-yl)phenoxy)spiro[3.3]heptan-2-yl)-6-(2-hydroxy-2-methylpropoxy)pyrazolo[1,5-a]pyridine-3-carboxamide]	5 to 50
CC(C)(O)COc1ccc2c(C(=O)NC3CC4(C3)CC(Oc3cc(-c5cc(CO)cc(CO)c5)ccc3C(N)=O)C4)cnn2c1 (centres unmarked) [Example 258, N-(6-((4-carbamoyl-3′,5′-bis(hydroxymethyl)-[1,1′-biphenyl]-3-yl)oxy)spiro[3.3]heptan-2-yl)-6-(2-hydroxy-2-methylpropoxy)pyrazolo[1,5-a]pyridine-3-carboxamide]	< 5
CN1CCN(CCCc2ccc(C(N)=O)c(OC3CC4(CC(NC(=O)c5cnn6cc(OCC(C)(C)O)ccc56)C4)C3)c2)CC1 (centres unmarked) [Example 266, N-(6-(2-carbamoyl-5-(3-(4-methylpiperazin-1-yl)propyl)phenoxy)spiro[3.3]heptan-2-yl)-6-(2-hydroxy-2-methylpropoxy)pyrazolo[1,5-a]pyridine-3-carboxamide]	50 to 250
CC(C)(O)COc1ccc2c(C(=O)NC3CC4(C3)CC(Oc3c(F)cc(F)cc3C(N)=O)C4)cnn2c1C1CC1 (centres unmarked) [Example 269, N-(6-(2-carbamoyl-4,6-difluorophenoxy)spiro[3.3]heptan-2-yl)-7-cyclopropyl-6-(2-hydroxy-2-methylpropoxy)pyrazolo[1,5-a]pyridine-3-carboxamide]	50 to 250
CC(C)(O)COc1ccc2c(C(=O)NC3CC4(C3)CC(Oc3ccc(F)cc3C(N)=O)C4)cnn2c1 (centres unmarked) [Example 270, N-(6-(2-carbamoyl-4-fluorophenoxy)spiro[3.3]heptan-2-yl)-6-(2-hydroxy-2-methylpropoxy)pyrazolo[1,5-a]pyridine-3-carboxamide]	50 to 250
CC(C)(O)COc1ccc2c(C(=O)NC3CC4(C3)CC(Oc3cc(Br)ccc3C(N)=O)C4)cnn2c1 (centres unmarked) [Example 272, N-(6-(5-bromo-2-carbamoylphenoxy)spiro[3.3]heptan-2-yl)-6-(2-hydroxy-2-methylpropoxy)pyrazolo[1,5-a]pyridine-3-carboxamide]	< 5
CC(C)(O)COc1ccc2c(C(=O)NC3CC4(C3)CC(Oc3cc(C5CC5)ccc3C(N)=O)C4)cnn2c1 (centres unmarked) [Example 273, N-(6-(2-carbamoyl-5-cyclopropylphenoxy)spiro[3.3]heptan-2-yl)-6-(2-hydroxy-2-methylpropoxy)pyrazolo[1,5-a]pyridine-3-carboxamide]	5 to 50
CC(C)(O)COc1ccc2c(C(=O)NC3CC4(C3)CC(Oc3cc(C5CC5)ccc3C(N)=O)C4)cnn2c1C1CC1 (centres unmarked) [Example 274, N-(6-(2-carbamoyl-5-cyclopropylphenoxy)spiro[3.3]heptan-2-yl)-7-cyclopropyl-6-(2-hydroxy-2-methylpropoxy)pyrazolo[1,5-a]pyridine-3-carboxamide]	< 5

Further lines, results first:

IC50 [nM]	SMILES
5 to 50	CC(C)(O)COc1ccc2c(C(=O)NC3CC4(C3)CC(Oc3cc(-c5cc(F)cc(C#N)c5)ccc3C(N)=O)C4)cnn2c1 (centres unmarked) [Example 253, N-(6-((4-carbamoyl-3′-cyano-5′-fluoro-[1,1′-biphenyl]-3-yl)oxy)spiro[3.3]heptan-2-yl)-6-(2-hydroxy-2-methylpropoxy)pyrazolo[1,5-a]pyridine-3-carboxamide]
5 to 50	CC(C)(O)COc1ccc2c(C(=O)NC3CC4(C3)CC(Oc3cc(-c5cccc(C(N)C(=O)O)c5)ccc3C(N)=O)C4)cnn2c1 (centres unmarked) [Example 257, 2-amino-2-(4′-carbamoyl-3′-((6-(6-(2-hydroxy-2-methylpropoxy)pyrazolo[1,5-a]pyridine-3-carboxamido)spiro[3.3]heptan-2-yl)oxy)-[1,1′-biphenyl]-3-yl)acetic Acid]
5 to 50	CC(C)(O)COc1ccc2c(C(=O)NC3CC4(C3)CC(Oc3cc(O)ccc3C(N)=O)C4)cnn2c1 (centres unmarked) [Example 259, N-(6-(2-carbamoyl-5-hydroxyphenoxy)spiro[3.3]heptan-2-yl)-6-(2-hydroxy-2-methylpropoxy)pyrazolo[1,5-a]pyridine-3-carboxamide]
5 to 50	CC(C)(O)COc1ccc2c(C(=O)NC3CC4(C3)CC(Oc3cc(N5CC(N)C5)ccc3C(N)=O)C4)cnn2c1 (centres unmarked) [Example 260, N-(6-(5-(3-aminoazetidin-1-yl)-2-carbamoylphenoxy)spiro[3.3]heptan-2-yl)-6-(2-hydroxy-2-methylpropoxy)pyrazolo[1,5-a]pyridine-3-carboxamide, TFA]
< 5	CC(C)(O)COc1ccc2c(C(=O)NC3CC4(C3)CC(Oc3cc(-c5cccc(CCN)c5)ccc3C(N)=O)C4)cnn2c1 (centres unmarked) [Example 261, N-(6-((3′-(2-aminoethyl)-4-carbamoyl-[1,1′-biphenyl]-3-yl)oxy)spiro[3.3]heptan-2-yl)-6-(2-hydroxy-2-methylpropoxy)pyrazolo[1,5-a]pyridine-3-carboxamide]
5 to 50	CN(C)CCCc1ccc(C(N)=O)c(OC2CC3(CC(NC(=O)c4cnn5cc(OCC(C)(C)O)ccc45)C3)C2)c1 (centres unmarked) [Example 262, N-(6-(2-carbamoyl-5-(3-(dimethylamino)propyl)phenoxy)spiro[3.3]heptan-2-yl)-6-(2-hydroxy-2-methylpropoxy)pyrazolo[1,5-a]pyridine-3-carboxamide]
5 to 50	CN(C)CCCc1ccc(C(N)=O)c(OC2CC3(CC(NC(=O)c4cnn5c(C6CC6)c(OCC(C)(C)O)ccc45)C3)C2)c1 (centres unmarked) [Example 263, N-(6-(2-carbamoyl-5-(3-(dimethylamino)propyl)phenoxy)spiro[3.3]heptan-2-yl)-7-cyclopropyl-6-(2-hydroxy-2-methylpropoxy)pyrazolo[1,5-a]pyridine-3-carboxamide]
50 to 250	CC(C)(O)COc1ccc2c(C(=O)NC3CC4(C3)CC(Oc3cc(CCCN5CCOCC5)ccc3C(N)=O)C4)cnn2c1 (centres unmarked) [Example 264, N-(6-(2-carbamoyl-5-(3-morpholinopropyl)phenoxy)spiro[3.3]heptan-2-yl)-6-(2-hydroxy-2-methylpropoxy)pyrazolo[1,5-a]pyridine-3-carboxamide]
5 to 50	CC(C)(O)COc1ccc2c(C(=O)NC3CC4(C3)CC(Oc3cc(CCCN5CCOCC5)ccc3C(N)=O)C4)cnn2c1C1CC1 (centres unmarked) [Example 265, N-(6-(2-carbamoyl-5-(3-morpholinopropyl)phenoxy)spiro[3.3]heptan-2-yl)-7-cyclopropyl-6-(2-hydroxy-2-methylpropoxy)pyrazolo[1,5-a]pyridine-3-carboxamide]
5 to 50	CN1CCN(CCCc2ccc(C(N)=O)c(OC3CC4(CC(NC(=O)c5cnn6c(C7CC7)c(OCC(C)(C)O)ccc56)C4)C3)c2)CC1 (centres unmarked) [Example 267, N-(6-(2-carbamoyl-5-(3-(4-methylpiperazin-1-yl)propyl)phenoxy)spiro[3.3]heptan-2-yl)-7-cyclopropyl-6-(2-hydroxy-2-methylpropoxy)pyrazolo[1,5-a]pyridine-3-carboxamide]
250 to 2500	CC(C)(O)COc1ccc2c(C(=O)NC3CC4(C3)CC(Oc3c(F)cc(F)cc3C(N)=O)C4)cnn2c1 (centres unmarked) [Example 268, N-(6-(2-carbamoyl-4,6-difluorophenoxy)spiro[3.3]heptan-2-yl)-6-(2-hydroxy-2-methylpropoxy)pyrazolo[1,5-a]pyridine-3-carboxamide]
5 to 50	CC(C)(O)COc1ccc2c(C(=O)NC3CC4(C3)CC(Oc3ccc(F)cc3C(N)=O)C4)cnn2c1C1CC1 (centres unmarked) [Example 271, N-(6-(2-carbamoyl-4-fluorophenoxy)spiro[3.3]heptan-2-yl)-7-cyclopropyl-6-(2-hydroxy-2-methylpropoxy)pyrazolo[1,5-a]pyridine-3-carboxamide]
5 to 50	Cn1cc(-c2ccc(C(N)=O)c(OC3CC4(CC(NC(=O)c5cnn6cc(OCC(C)(C)O)ccc56)C4)C3)c2)cn1 (centres unmarked) [Example 275, N-(6-(2-carbamoyl-5-(1-methyl-1H-pyrazol-4-yl)phenoxy)spiro[3.3]heptan-2-yl)-6-(2-hydroxy-2-methylpropoxy)pyrazolo[1,5-a]pyridine-3-carboxamide]
